Laboratory results taken from PubChem BioAssay AID200 (DTP/NCI, 2004).
“And” between values parts separate entries of the source, which are not always exact repeats. Equal entries are not always repeated. Toxic doses and inconclusive results are not listed.

System: B6C3F1 mice, B16 melanoma ip, median survival T/C
Assay: NCI In Vivo Anticancer Drug Screen. Data for tumor model B16 Melanoma (intraperitoneal) in B6C3F1 mice
Conditions: endpoint: median survival time, schedule: Q01DX009 (ip), higher = longer survival
In short: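 Values are T/C ratios: the measurement in treated animals divided by that in vehicle-treated controls, using survival or tumor size in mice carrying transplantable tumors.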

[1] = dose: 25.0 mg/kg/injection, vehicle: saline
[2] = dose: 25.0 mg/kg/injection, vehicle: saline with Tween-80
[3] = dose: 50.0 mg/kg/injection, vehicle: saline with Tween-80
[4] = dose: 100.0 mg/kg/injection, vehicle: saline with Tween-80
[5] = dose: 50.0 mg/kg/injection, vehicle: Klucel (hydroxypropylcellulose) (HPC)
[6] = dose: 100.0 mg/kg/injection, vehicle: Klucel (hydroxypropylcellulose) (HPC)
[7] = dose: 200.0 mg/kg/injection, vehicle: Klucel (hydroxypropylcellulose) (HPC)

SMILES: Nc1ccn(C2OC(CO)C(O)C2O)c(=O)n1 (stereo not drawn)
- T/C [1]: 120 % of control
- T/C (dose: 2400.0 mg/kg/injection, vehicle: saline with Tween-80): 110 % of control

SMILES: CC(=O)Nc1ccc(C(=O)C=O)cc1
- T/C (dose: 6.25 mg/kg/injection, vehicle: saline with Tween-80): 101 % of control and 103 % of control
- T/C (dose: 12.5 mg/kg/injection, vehicle: saline with Tween-80): 116 % of control and 106 % of control
- T/C [2]: 112 % of control and 101 % of control
- T/C [3]: 112 % of control and 115 % of control
- T/C [4]: 102 % of control and 103 % of control

SMILES: CN=C(N)N/N=C(\C)c1ccc2sc3ccc(/C(C)=N/NC(N)=NC)cc3c2c1
- T/C [2]: 108 % of control
- T/C [3]: 113 % of control
- T/C [4]: 120 % of control
- T/C (dose: 200.0 mg/kg/injection, vehicle: saline with Tween-80): 119 % of control
- T/C (dose: 400.0 mg/kg/injection, vehicle: saline with Tween-80): 95 % of control

SMILES: CN(CN1C(=O)CCC1=O)CN1C(=O)CCC1=O
- T/C [1]: 98 % of control
- T/C (dose: 50.0 mg/kg/injection, vehicle: saline): 101 % of control
- T/C (dose: 100.0 mg/kg/injection, vehicle: saline): 105 % of control
- T/C (dose: 200.0 mg/kg/injection, vehicle: saline): 115 % of control

SMILES: Nc1nc(-c2ccc(Cl)cc2)c(Br)c(=O)[nH]1
- T/C (dose: 13.0 mg/kg/injection, vehicle: saline with Tween-80): 104 % of control
- T/C (dose: 26.0 mg/kg/injection, vehicle: saline with Tween-80): 110 % of control
- T/C (dose: 52.0 mg/kg/injection, vehicle: saline with Tween-80): 98 % of control
- T/C (dose: 104.0 mg/kg/injection, vehicle: saline with Tween-80): 120 % of control

SMILES: CCOC(=O)c1ccc(NC(=O)Nc2nc(C)cs2)cc1
- T/C (dose: 12.5 mg/kg/injection, vehicle: distilled water + Tween-80): 120 % of control
- T/C (dose: 25.0 mg/kg/injection, vehicle: distilled water + Tween-80): 120 % of control

SMILES: OCC1OC(n2cnc3c(SCc4ccccc4)ncnc32)C(O)C1O (stereo not drawn)
- T/C (dose: 37.5 mg/kg/injection, vehicle: saline with Tween-80): 171 % of control
- T/C (dose: 75.0 mg/kg/injection, vehicle: saline with Tween-80): 167 % of control
- T/C (dose: 150.0 mg/kg/injection, vehicle: saline with Tween-80): 182 % of control

SMILES: CCCC1CC(C(=O)NC(C(C)O)C2OC(SC)C(O)C(O)C2O)N(C)C1 (stereo not drawn)
- T/C [5]: 113 % of control
- T/C [6]: 95 % of control
- T/C [7]: 100 % of control
- T/C (dose: 400.0 mg/kg/injection, vehicle: Klucel (hydroxypropylcellulose) (HPC)): 89 % of control

SMILES: O=C1c2ccccc2CCC1(Br)Br
- T/C (dose: 2.5 mg/kg/injection, vehicle: Klucel (hydroxypropylcellulose) (HPC)): 107 % of control
- T/C (dose: 10.0 mg/kg/injection, vehicle: Klucel (hydroxypropylcellulose) (HPC)): 90 % of control

SMILES: O=c1[nH]cnc2c1cnn2CN1CCOCC1
- T/C (dose: 25.0 mg/kg/injection, vehicle: Klucel (hydroxypropylcellulose) (HPC)): 98 % of control and 99 % of control
- T/C [5]: 100 % of control and 102 % of control
- T/C [6]: 123 % of control and 100 % of control
- T/C [7]: 99 % of control

SMILES: CCCC1CCC(=C2C(=O)CCC2=O)O1 (stereo not drawn)
- T/C [2]: 103 % of control
- T/C [3]: 98 % of control

SMILES: Cc1noc(N)c1N
- T/C (dose: 12.0 mg/kg/injection, vehicle: water): 94 % of control
- T/C (dose: 25.0 mg/kg/injection, vehicle: water): 100 % of control
- T/C (dose: 50.0 mg/kg/injection, vehicle: water): 106 % of control
- T/C (dose: 100.0 mg/kg/injection, vehicle: water): 100 % of control
- T/C (dose: 200.0 mg/kg/injection, vehicle: water): 96 % of control
- T/C (dose: 400.0 mg/kg/injection, vehicle: water): 90 % of control
